# “Also recorded” adds a separate entry of the source. Read-outs that look alike come from different tables or passages of the source.
# Tests used:
# Type in all cases: in vivo, human
# [1] = HBEA plasma pharmacokinetics after single doses
# Excerpt: (§1) HBEA is a single ascending dose study of a D1 receptor positive allosteric modulator LY3154207 in healthy volunteers. Study HBEA aims to determine the safety, tolerability, and peripheral and central pharmacokinetics (PK) of single ascending doses of LY3154207 in healthy subjects. Study HBEB aims to evaluate the effect of single-dose LY3154207 on sleep latency in sleep-deprived healthy male subjects as measured by a multiple sleep latency test (MSLT). HBEA was a Phase 1, 2-part, randomized, double-blind, placebo-controlled study in healthy males or females. Part A has a 3-period crossover design with 2 alternating, single-dose escalating cohorts, and subjects were randomized to LY3154207 (n=6) or placebo (n=3) in each cohort in each dosing period. Part B has a single-period, single-dose, 2-cohort design with cerebrospinal fluid (CSF) sampling, and subjects were randomized to LY3154207 (n=8) or placebo (n=4) in each cohort.
# This is a phase 1, SAD, crossover design of LY3154207 in healthy subjects conducted in 2 alternating cohorts with dose escalation. Subjects are dosed at 25 mg, 75 mg, 100 mg, 150 mg and 200 mg or placebo. Safety parameters assessed include adverse events (AEs), safety laboratories, vital signs, ambulatory blood pressure monitoring (ABPM) and electrocardiogram (ECG). Subjects provide blood samples after dosing to measure plasma concentrations of LY3154207 for assessment of PK.
# (§2) HBEA Part B is a study of Cerebrospinal fluid (CSF) and plasma pharmacokinetic (PK) profile following a single dose of LY3154207 in healthy volunteers. The objective of the study is to determine the CSF and plasma PK profile of LY3154207 in a single dose study m healthy volunteers. This study consisted of 2 cohorts in a single-dose, single-period, placebo-controlled, randomized, double-blind, parallel-group study. Subjects were randomized to 25 mg and 75 mg and underwent serial blood and CSF sampling at 2 hours pre-dose and 24 hours post-dose to measure concentrations of LY3154207. Twenty-four subjects enrolled and all completed the study. […] Concentrations of LY3154207 in CSF were detectable up to 8 h after a dose of 25 mg and up to 24 hours after a dose of 75 mg. At each dose about 1% of the total LY3154207 exposure in plasma was available in CSF. At 25 mg and 75 mg, central penetration of LY3154207 was confirmed by measurement of LY3154207 in CSF supporting its use according to the dosing regimens of the present invention in dopaminergic CNS disorders.
# [2] = HBEA Part B cerebrospinal fluid (CSF) pharmacokinetics after a single dose
# Excerpt: as §1, §2
# healthy volunteers [3] = test: HBEA Part B adverse events; settings: 75 mg, all mild
# Excerpt: as §1
# HBEA Part B is a study of Cerebrospinal fluid (CSF) and plasma pharmacokinetic (PK) profile following a single dose of LY3154207 in healthy volunteers. The objective of the study is to determine the CSF and plasma PK profile of LY3154207 in a single dose study m healthy volunteers. This study consisted of 2 cohorts in a single-dose, single-period, placebo-controlled, randomized, double-blind, parallel-group study. […]
# participants with PD = test: HBEC Part B multiple dose study: TEAEs, vital signs, tolerability
# Method: FIG. 3: Design of the study HBEC, a multiple ascending dose study of LY3154207, a randomized, double-blind, placebo-controlled, multiple ascending dose, parallel-group study, of healthy subjects (Part A) and participants with PD (Part B) who received once-daily doses of LY3154207 (15, 30, 75, or 150 mg in Part A and up to 75 mg in Part B) or placebo for 14 days. aEach ascending dose cohort commenced only after review of the safety data to at least Day 7 from the previous cohort. bParticipants with PD in Cohort 6 received titrated doses to determine the effect of this dosing schedule (i.e., Days 1-3:15 mg: Days 4-6:30 mg; and Days 7-14:75 mg) on cardiovascular effects. Note: All cohorts were dosed for 14 days. CRU=clinical research unit: LY=LY3154207; PBO=placebo: PD=Parkinson's disease: R=randomized.
# In this randomized, double-blind, placebo-controlled, multiple ascending dose, parallel-group study, HBEC, healthy subjects (Part A) and participants with PD (Part B) received once-daily doses of LY3154207 (15, 30, 75, or 150 mg in Part A and up to 75 mg in Part B) or placebo for 14 days, as illustrated in FIG. 3.
# Study outcomes included 24-hour ambulatory blood pressure monitoring (ABPM), treatment-emergent adverse events (TEAEs), and PK assessments in both healthy subjects and participants with PD, as well as Movement Disorder Society-United Parkinson's Disease Rating Scale (MDS-UPDRS) assessments to evaluate the impact of LY3154207 on motor function in participants with PD. The objective was to explore the safety, tolerability, and pharmacokinetics (PK) of multiple oral daily dosing of LY3154207 in healthy subjects (Part A) and in participants with PD (Part B).
# healthy volunteers [4] = test: HBEC cognition tests: Digit Symbol Substitution Test (DSST), Hopkins Verbal Learning Test (HVLT); settings: 15 mg
# [5] = participants with PD receiving LY3154207
# [6] = participants with PD, LY 75 mg Titration (Days 1-3: 15 mg; Days 4-6: 30 mg; Days 7-14: 75 mg) (N = 8)
# [7] = participants with PD, LY 75 mg once daily for 14 days (N = 9)
smiles,measurement,setting,value
C[C@H]1c2cccc(CCC(C)(C)O)c2C[C@H](CO)N1C(=O)Cc1c(Cl)cccc1Cl [LY3154207],apparent clearance (CL/F),[1]; across doses,19 to 25 L/h
same,Tmax,"[1]; both sexes, human, plasma, single doses, read-out: median tmax",2 to 3 h
same,half-life,"[1]; both sexes, human, plasma, single doses, read-out: terminal half-life (t1/2) (converted)",~12 h
same,renal elimination,[1]; in vivo,negligible renal elimination
same,linearity of PK,"[1]; plasma, 25-200 mg",linear PK profile; also recorded: linear plasma PK
same,dose proportionality of Cmax and AUC,"[1]; plasma, 25 to 200 mg",proportional with dose; also recorded: increased in proportion to LY3154207 dose
same,administered dose excreted in urine,[1]; single doses,0.02%
same,central penetration by measurement in CSF,[2]; 25 and 75 mg,confirmed
same,time for which concentrations in CSF were detectable,[2]; after a dose of 25 mg,up to 8 h
same,time for which concentrations in CSF were detectable,[2]; after a dose of 75 mg,up to 24 hours
same,Kp,"[2]; both sexes, human, CSF, 25 mg and 75 mg, read-out: share of total plasma exposure available in CSF",~0.01
same,Tmax,"[2]; both sexes, human, CSF, read-out: CSF median tmax",3 to 4 h
same,half-life,"[2]; both sexes, human, CSF, read-out: CSF t1/2 (converted)",8 h
same,Kp,"[2]; both sexes, human, CSF, read-out: CSF/unbound plasma ratio",0.3
same,subjects with treatment-related AEs,healthy volunteers [3],25%
same,severe or serious TEAEs,participants with PD; participants with PD,no severe or serious TEAEs
same,"headache, treatment-related AE",participants with PD; [5],1 n
same,"hypoesthesia, treatment-related AE",participants with PD; [5],1 n
same,"upper abdominal pain, treatment-related AE",participants with PD; [5],1 n
same,"visual hallucination, treatment-related AE",participants with PD; [5],1 n
same,Number of TEAEs,participants with PD; [6],7
same,"Number of TEAEs, Mild",participants with PD; [6],6
same,"Number of TEAEs, Moderate",participants with PD; [6],1
same,"Subjects with ≥1 TEAE, (%)",participants with PD; [6],(62.5) %
same,Number of TEAEs,participants with PD; [7],14
same,"Number of TEAEs, Mild",participants with PD; [7],13
same,"Number of TEAEs, Moderate",participants with PD; [7],1
same,"Subjects with ≥1 TEAE, (%)",participants with PD; [7],(66.7) %
same,"course of the initial increase in SBP, DBP, and pulse rate","participants with PD; participants with PD, repeated dosing",accommodation effect was less notable
same,tolerability of multiple once-daily doses,participants with PD; up to 75 mg in participants with PD,well tolerated
same,"Hopkins Verbal Learning Test (HVLT), improvement from baseline relative to other arms",healthy volunteers [4],largest average improvement from baseline
same,"Digit Symbol Substitution Test (DSST), change from baseline relative to other arms",healthy volunteers [4]; both post dose time points,highest average change from baseline; also recorded: trend for better cognitive effects

# From patent US12642794B2, “Dose regimens for use of LY3154207 in the treatment of dopaminergic CNS disorders” (Eli Lilly and Company, priority 2018, dated 2026)
